Results from PMC9961069 (Metabolites, 2023).

Columns and labels:
[1] = tested on: MDA-MB-231 cells; assay: Resazurin viability assay with or without folinic acid, MDA-MB-231; assay type: cell-based, Human; conditions: 72 h; for Relative Viability (%) – Inhibitor + FA Treatment: MDA-MB-231, 10 μM + 300 μg/mL folinic acid; for Relative Viability (%) – Inhibitor Alone: MDA-MB-231, 10 μM, relative to DMSO
Procedure: (§1) The incorporation and metabolism of resazurin to resorufin was used to monitor cell viability. MDA-MB-468, MCF7, and MDA-MB-231 cells were grown in 96-well plates with a total of 5000 cells per well in a total volume of 180 μL for 24 h, as described above. After 24 h of growth, cells were treated with increasing concentrations of compounds (0.0457–100 μM) for 72 h. A vehicle control was also performed. […] The volume of treatment added to each well was 20 μL. For folinic acid rescue experiments, 5000 cells were treated with 10 μM compound with or without 300 μg/mL folinic acid (Supelco). After 72 h of treatment, resazurin was added to a final concentration of 44 μM, and cells were incubated for an additional 4 h at 37 °C. The fluorescence of resorufin was monitored on a Synergy MX microplate reader (BioTek) using an excitation wavelength of 540 nm and an emission wavelength of 600 nm. Percent viability relative to the DMSO control was determined. Each treatment was performed in triplicate, and each individual experiment was repeated three times (n = 3).

[2] = molecular target: T1, purified human DHFR (Homo sapiens, UniProt P00374); assay: DHFR enzymatic inhibition assay (NADPH absorbance at 340 nm); assay type: biochemical; conditions: 200 nM DHFR, 137.5 μM DHF, 125 μM NADPH; n = 2; read-out: IC50
T1 construct: made in house; host or cells: E. coli BL21 (DE3) T1R pRARE2, pNIC-Bsa4 plasmid
T1 sequence (P00374 1-187): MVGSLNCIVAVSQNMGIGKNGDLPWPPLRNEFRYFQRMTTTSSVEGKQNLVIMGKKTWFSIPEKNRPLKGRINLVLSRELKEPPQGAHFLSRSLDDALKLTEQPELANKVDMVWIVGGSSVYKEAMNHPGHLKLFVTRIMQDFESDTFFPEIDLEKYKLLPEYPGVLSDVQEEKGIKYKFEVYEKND
Procedure: Working stocks of each inhibitor were created so that the final concentration of DMSO in each reaction was 2% in a final reaction volume of 100 μL. […] Reactions were prepared on ice in 384-well plates. […] Consumption of NADPH by measuring absorbance at 340 nm was used to monitor the progress of the reaction. Readings were taken every 5 min for 1 h at 37 °C using a Synergy MX microplate reader (BioTek).
Percent inhibition relative to the no-inhibitor control was determined using Equation (1). (1) % Inhibition=A340Inhibitor−A340DMSO Control/A340No DHFR−A340DMSO Control×100
Percent inhibition data were then fit to the four-parameter logistic model (Equation (2)) in GraphPad Prism 9.4.1 to determine half-maximal inhibitory concentrations (IC50):(2) y=Bottom+Top−Bottom/1+IC50/x^Hill slope where y represents the percent inhibition, x represents the concentration of inhibitor (μM), the bottom and top represent the bottom and top plateaus, and the Hill slope represents the slope factor. Each experiment contained duplicates of each sample, and each experiment was performed 2 times (n = 2). An ordinary one-way ANOVA was used to test for statistical significance between treatments.

[3] = tested on: T2, DHFR in MDA-MB-468 lysates; assay: Lysate cellular thermal shift assay (CETSA) for DHFR; assay type: binding, Human; conditions: 10 μM, MDA-MB-468 lysate, 45 °C for 3 min; DMSO at 37 °C = 100%
T2 construct: reactions containing 55 μg MDA-MB-468 lysate; endogenous in cells; host or cells: MDA-MB-468
Procedure: Trypsinized MDA-MB-468 cells were harvested by centrifugation at 200× g for 5 min and washed with PBS supplemented with EDTA-free PIC (Roche) and flash frozen for storage at −80 °C. Cells were lysed by resuspension in 60 μL PBS/PIC per 1 × 10^6 cells. Cells were lysed by three freeze-thaw cycles, where cells were frozen in an ethanol/dry ice bath for 3 min, immediately followed by incubation in a 37 °C water bath for 3 min. The insoluble fraction was removed by centrifugation at 20,000× g for 20 min at 4 °C. The supernatant containing the soluble lysate was removed and saved for subsequent steps.
After incubation, each reaction was transferred to a 1.5 mL tube and centrifuged at 20,000× g for 20 min at 4 °C to remove the insoluble proteins. After centrifugation, 18 μL of supernatant was carefully removed from each reaction, without disturbing any pelleted aggregates, and added to 4.5 μL of 5× SDS-PAGE loading buffer. 11 μL of each reaction was loaded onto a gel in duplicate, and proteins were detected by Western blot (as described below). Resulting band densities were fit to the Boltzmann equation to determine the melting temperature (Tm):(3) y=Bottom+Top−Bottom/1+e^Tm−x/Slope
To rescue the thermal degradation of DHFR by inhibitors, samples containing 10 μM inhibitor, 55 μg lysate, and 1% DMSO in a total volume of 28 μL in DHFR buffer were prepared in PCR tubes and incubated at room temperature for 20 min. Two DMSO-only controls were also prepared. Reactions containing inhibitors were then incubated at 45 °C for 3 min. One DMSO-only control was also heated at 45 °C for 3 min, and the other control was heated at 37 °C for 3 min. The soluble protein fraction was separated from the insoluble proteins by centrifugation, and proteins were separated by SDS-PAGE, as described above, and analyzed via Western blot, as described below. Each experiment was repeated 3 times.
Proteins were electrophoretically separated on a 10% gel, and proteins were transferred to a methanol-activated PVDF membrane using the Trans-Blot Turbo transfer system (Bio-Rad) for 7 min at 1.3 A and 25 V in Trans-Blot Turbo transfer buffer (Bio-Rad). Membranes were blocked with 5% skim milk w/v in TBS-T (20 mM Tris, 150 mM NaCl, 0.05% Tween-20) for 1 h at room temperature. […] The horseradish peroxidase (HRP)-linked anti-mouse IgG secondary antibody (NA931, Cytiva; 1:3000) was added for 1 h at room temperature in 5% skim milk w/v in TBS-T. Signal was detected by adding Immobilon Forte Western HRP Substrate (Millipore), and chemiluminescence was captured on a Sapphire Biomolecular Imager (Azure Biosystems). Band densities were determined using ImageJ (Fiji). The band intensity of DHFR was normalized to the thermostable loading control SOD1 [22].

[4] = tested on: MDA-MB-468 cells; assay: Resazurin viability assay with or without folinic acid, MDA-MB-468; assay type: cell-based, Human; conditions: 72 h; for Relative Viability (%) – Inhibitor + FA Treatment: MDA-MB-468, 10 μM + 300 μg/mL folinic acid; for Relative Viability (%) – Inhibitor Alone: MDA-MB-468, 10 μM, relative to DMSO
Procedure: as §1

[5] = tested on: MCF-7 cells; assay: Resazurin viability assay with or without folinic acid, MCF-7; assay type: cell-based, Human; conditions: 72 h; for Relative Viability (%) – Inhibitor + FA Treatment: MCF-7, 10 μM + 300 μg/mL folinic acid; for Relative Viability (%) – Inhibitor Alone: MCF-7, 10 μM, relative to DMSO; for Rescue of viability impairment by folinic acid: MCF-7, 10 μM ± 300 μg/mL FA
Procedure: as §1

Compound: CCc1nc(N)nc(N)c1-c1ccc(Cl)c(Cl)c1 [compound 3062, etoprine]
- Relative Viability (%) – Inhibitor + FA Treatment [1]: 65.52 ± 15.0%
- Relative Viability (%) – Inhibitor Alone [1]: 52.76 ± 12.1%
- IC50 [2]: 8.6 ± 2.7 µM
- Normalized Band Density (%) of soluble DHFR [3]: 83.56 ± 52.1%
- Relative Viability (%) – Inhibitor + FA Treatment [4]: 81.08 ± 13.2%
- Relative Viability (%) – Inhibitor Alone [4]: 65.38 ± 1.3%
- Relative Viability (%) – Inhibitor + FA Treatment [5]: 100.10 ± 8.2%
- Relative Viability (%) – Inhibitor Alone [5]: 65.16 ± 9.0%

Compound: CC1(C)N=C(N)N=C(N)N1c1ccc(Cl)c(Cl)c1 [compound 3077]
- Rescue of viability impairment by folinic acid [5]: small yet statistically significant rescue

Compound: CCS(=O)(=O)O.CN(C)C(=O)c1cccc(COc2ccc(N3C(N)=NC(N)=NC3(C)C)cc2Cl)c1 [compound 139105, triazinate]
- Relative Viability (%) – Inhibitor + FA Treatment [1]: 65.85 ± 13.7%
- Rescue of viability impairment by folinic acid ([1]; MDA-MB-231, 10 μM ± 300 μg/mL FA): not rescued
- Relative Viability (%) – Inhibitor Alone [1]: 46.35 ± 9.0%
- Normalized Band Density (%) of soluble DHFR [3]: 86.05 ± 21.9%
- Relative Viability (%) – Inhibitor + FA Treatment [4]: 81.38 ± 16.9%
- Rescue of viability impairment by folinic acid ([4]; MDA-MB-468, 10 μM ± 300 μg/mL FA): statistically significant rescue
- Relative Viability (%) – Inhibitor Alone [4]: 57.09 ± 8.0%
- Relative Viability (%) – Inhibitor + FA Treatment [5]: 82.83 ± 9.7%
- Rescue of viability impairment by folinic acid [5]: not rescued
- Relative Viability (%) – Inhibitor Alone [5]: 66.53 ± 8.1%
